Values after ≈ are worked out from the molar mass of the structure shown. Where no end group is shown, it is not given here.
What was measured:
Type in all cases: cell-based
Trichosporon beigelii = test: Antifungal MIC by MTT assay; details: 28℃, 24 h, MTT readout at 570 nm
[1] = test system: Candida albicans (ATCC 90028); test: Antifungal MIC by MTT assay; details: strain ATCC 90028; 28℃, 24 h, MTT readout at 570 nm
Trichophyton rubrum = test: Antifungal MIC by MTT assay; details: 28℃, 24 h, MTT readout at 570 nm
Aspergillus fumigatus = test: Antifungal MIC by MTT assay; details: 28℃, 24 h, MTT readout at 570 nm
Aspergillus parasticus = test: Antifungal MIC by MTT assay; details: 28℃, 24 h, MTT readout at 570 nm
Candida parapsilosis = test: Antifungal MIC by MTT assay; details: 28℃, 24 h, MTT readout at 570 nm
Candida albicans [2] = test: Mechanism of antifungal activity (time-kill, CFU count; cidal or static); details: plated over time on YPD agar, 28℃, 24 h, CFU count (Fig. 2)
Human erythrocytes = test: Cytotoxicity to human erythrocytes (hemolysis); details: for % human erythrocyte hemolysis: 37℃, 90 min, 0.1% Triton X-100 = 100 %; for Cytotoxicity to human erythrocytes (in words): summary of Table 3
Malassezia furfur = test: Antifungal MIC by MTT assay; details: 28℃, 24 h, MTT readout at 570 nm
Candida albicans [3] = test: Activity on dimorphism (FBS-induced hyphae) of pathogenic fungus, microscopy; details: hyphae induced with 20% FBS; 37℃, 24 h; microscopy (Fig. 1)
Aspergillus flavus = test: Antifungal MIC by MTT assay; details: 28℃, 24 h, MTT readout at 570 nm
[4] = test system: Candida albicans (TIMM 1768); test: Antifungal MIC by MTT assay; details: strain TIMM 1768; 28℃, 24 h, MTT readout at 570 nm

| Molecule | MIC (Trichosporon beigelii) [µM] | MIC [1] [µM] | MIC (Trichophyton rubrum) [µM] | MIC (Aspergillus fumigatus) [µM] | MIC (Aspergillus parasticus) [µM] | MIC (Candida parapsilosis) [µM] | Mode of antifungal action, cidal or static (in words) (Candida albicans [2]) | % human erythrocyte hemolysis (Human erythrocytes; peptide 3.13 μM) [%] | % human erythrocyte hemolysis (Human erythrocytes; peptide 6.25 μM) [%] | % human erythrocyte hemolysis (Human erythrocytes; peptide 12.5 μM) [%] | % human erythrocyte hemolysis (Human erythrocytes; peptide 25 μM) [%] | % human erythrocyte hemolysis (Human erythrocytes; peptide 50 μM) [%] | % human erythrocyte hemolysis (Human erythrocytes; peptide 100 μM) [%] | Cytotoxicity to human erythrocytes (in words) (Human erythrocytes) | MIC (Malassezia furfur) [µM] | Effect on hyphae of Candida albicans (in words) (Candida albicans [3]) | MIC (Aspergillus flavus) [µM] | MIC [4] [µM] |
| --- | --- | --- | --- | --- | --- | --- | --- | --- | --- | --- | --- | --- | --- | --- | --- | --- | --- | --- |
| VTCDVLSFEAKGIAVNHSACALHCIALRKKGGSCQNGVCVCRN (cysteines drawn unpaired) [코프리신] | 10 | 10 | 20 | 5 | 10 | 10 | 효과적으로 사멸(cidal) | 0 | 0 | 0 | 0 | 0 | 0 | 고농도에서도 전혀 세포 독성을 나타내지 않음 | 5 | hyphae를 효과적으로 aggregation시킴 | 10 | 5 to 10 |
| CC[C@H](C)[C@H](NC(=O)CN)C(=O)NCC(=O)N[C@@H](C)C(=O)N[C@H](C(=O)N[C@@H](CC(C)C)C(=O)N[C@@H](CCCCN)C(=O)N[C@H](C(=O)N[C@@H](CC(C)C)C(=O)N[C@H](C(=O)N[C@H](C(=O)NCC(=O)N[C@@H](CC(C)C)C(=O)N1CCC[C@H]1C(=O)N[C@@H](C)C(=O)N[C@@H](CC(C)C)C(=O)N[C@H](C(=O)N[C@@H](CO)C(=O)N[C@@H](Cc1c[nH]c2ccccc12)C(=O)N[C@H](C(=O)N[C@@H](CCCCN)C(=O)N[C@@H](CCCNC(=N)N)C(=O)N[C@@H](CCCCN)C(=O)N[C@@H](CCCNC(=N)N)C(=O)N[C@@H](CCC(N)=O)C(=O)N[C@@H](CCC(N)=O)C(N)=O)[C@@H](C)CC)[C@@H](C)CC)[C@@H](C)O)[C@@H](C)O)C(C)C)C(C)C [멜리틴, reference compound] | 2.5 (≈ 7.12 µg/mL) | 5 (≈ 14.2 µg/mL) | 5 (≈ 14.2 µg/mL) | 2.5 (≈ 7.12 µg/mL) | 5 (≈ 14.2 µg/mL) | 5 (≈ 14.2 µg/mL) | 효과적으로 사멸(cidal) | 98 | 98 | 100 | 100 | 100 | 100 | 낮은 농도에서도 세포 독성이 매우 높게 나타냄 | 1.25 (≈ 3.56 µg/mL) | – | 2.5 (≈ 7.12 µg/mL) | 2.5 (≈ 7.12 µg/mL) |
